Marks after values point to notes of the source that are not given here.
Columns and labels:
[1] = Pharmacokinetics of mometasone furoate, single-dose three-period cross-over study, Example 13; type: in vivo, human; conditions: single dose nasal spray
Protocol: The pharmacokinetics of mometasone furoate in a fixed dose combination of mometasone furoate and olopatadine hydrochloride nasal spray was evaluated in a clinical trial. The clinical trial was a randomized, single-center, single-dose, open-label, three-period, six-sequence, cross-over study to evaluate three treatments administered by nasal spray. The three treatments included a combination of mometasone furoate and olopatadine hydrochloride nasal spray, mometasone furoate nasal spray and Nasonex® nasal spray. […] The study consisted of a screening visit, 3 single-dose treatment periods with washout periods of 7 to 14 days between dosing in each treatment period, an early withdrawal visit if applicable, and a follow-up telephone call (or visit) 1 to 7 days after completing the third treatment period. A total of 30 subjects were randomized to 1 of 6 treatment sequences and received at least 1 dose of study drug. All 30 subjects were included in the safety analysis set and the pharmacokinetic subset. All but 2 subjects completed the study per protocol.

sneezing response = test: Sneezing response in ovalbumin induced rhinitis model (whole body plethysmography); type: in vivo, guinea pigs; conditions: for Inhibition of sneezing response (in words) / Number of Sneeze (0-50 min): MF 10 μg; for Percent inhibition of sneeze: MF 10 μg per animal, vs ovalbumin control; for Number of Sneeze (0-50 min): intranasal, ovalbumin challenged
Protocol: Male Dunkin Hartley guinea pigs were actively sensitized with a subcutaneous injection of 1.5 mg of ovalbumin and 20 mg of aluminum hydroxide gel on days 0 and 7. Guinea pigs were sensitized intranasally with 2% ovalbumin from days 14-17. On day 28, the animals were challenged with 6% ovalbumin intranasally. Mometasone furoate 10 μg was given intranasally 24 hours and 1 hour prior to the final ovalbumin challenge. Olopatadine hydrochloride was given intranasally 1 hour before the final ovalbumin challenge. The dosing volume was 40 μl/animal. The saline control group and ovalbumin control group received vehicle (40 μl, 0.1% Tween 80 in distilled water). Sneezing response was determined by using whole body plethysmography (Buxco Research Systems, USA) for 50 minutes after final saline or ovalbumin challenge. The procedure in Example 1 was repeated except 120 μg of olopatadine hydrochloride (based on the equivalent weight of olopatadine free base) was used. The animal groups in Table 3 below were used during this experiment. Compound administration was performed as in Example 1, except the dosing volume was 60 μl/animal. The saline control group and ovalbumin control group received vehicle (60 μl, 0.1% Tween 80 in distilled water). In vivo evaluations were performed as in Example 1.

[2] = system: total cells and eosinophils in nasal lavage; test: Nasal lavage total cell count and eosinophils in ovalbumin induced rhinitis model; type: in vivo, guinea pigs; conditions: for Inhibition of total cell and eosinophils in nasal lavage (in words): MF 10 μg; for % inhibition of eosinophils / Percent inhibition of total cell count / Eosinophils × 10^5/ml nasal lavage / Total cell count × 10^5/ml nasal lavage: MF 10 μg per animal
Protocol: Male Dunkin Hartley guinea pigs were actively sensitized with a subcutaneous injection of 1.5 mg of ovalbumin and 20 mg of aluminum hydroxide gel on days 0 and 7. Guinea pigs were sensitized intranasally with 2% ovalbumin from days 14-17. On day 28, the animals were challenged with 6% ovalbumin intranasally. Mometasone furoate 10 μg was given intranasally 24 hours and 1 hour prior to the final ovalbumin challenge. Olopatadine hydrochloride was given intranasally 1 hour before the final ovalbumin challenge. The dosing volume was 40 μl/animal. The saline control group and ovalbumin control group received vehicle (40 μl, 0.1% Tween 80 in distilled water). Nasal lavage was performed at 4 hours after challenge of animals with saline or ovalbumin on day 28. Animals were anesthetized with an overdose of urethane, the trachea was exposed and nasal lavage was performed using 2 mL pre-warmed normal saline. The collected nasal lavage was taken for total cell count using a hemocytometer. The nasal lavage was centrifuged, and the cell pellet resuspended in 15 μL guinea pig serum and used for preparation of smears. Slides were stained with Leishman's stain and a differential cell count of 100 cells based on standard morphology was performed manually. The total number of eosinophils in each nasal lavage sample was calculated using the formula: [formula] Percent inhibition of eosinophils was calculated using the following formula: The procedure in Example 1 was repeated except 120 μg of olopatadine hydrochloride (based on the equivalent weight of olopatadine free base) was used. The animal groups in Table 3 below were used during this experiment. Compound administration was performed as in Example 1, except the dosing volume was 60 μl/animal. The saline control group and ovalbumin control group received vehicle (60 μl, 0.1% Tween 80 in distilled water). In vivo evaluations were performed as in Example 1.

[3] = Plasma pharmacokinetics of TP-1 in the Phase III study, day 1 and day 8 (steady state); type: in vivo, human; conditions: patients receiving TP-1 twice daily
Description: This study consisted of four visits to the study site. After the initial screening visit (Visit 1), subjects who met all study selection criteria were required to undergo a single-blind placebo run-in period for 7-10 days. Following the completion of the run-in period, eligible subjects meeting the randomization criteria were enrolled and randomized to one of the four treatment arms. Subjects were dispensed medication as per the randomization list. Randomized subjects were required to undergo a 2 week (14 days) treatment period as per the protocol to assess the efficacy and safety of the assigned treatment. Subjects were instructed to record the symptom scores in a symptom assessment diary. They were also scheduled to have at least two blood samples for PK assessment during the treatment period.
• Change from baseline in average AM and PM subject-reported 12-hour rTNSS (reflective TNSS) over the 14-day treatment period. Secondary Endpoints • Change from baseline in average AM and PM subject-reported 12-hour iTNSS (instantaneous TNSS) over the 14 day treatment period. • Change from baseline in average AM and PM subject-reported 12-hour rTOSS (reflective TOSS) over the 14-day treatment period. • Onset of action for each treatment are assessed by comparing the change from baseline in post-treatment iTNSS between each active treatment and placebo at defined time points (prior to first dose (pre-dose), 15 min, 30 min, 45 min, 60 min, 90 min, 120 min, 150 min, 180 min, 210 min, and 240 min) after the first study treatment for 4 hours. • Change from baseline in the overall Rhinoconjunctivitis Quality of Life questionnaire (RQLQ)—Standardized Activities (RQLQ(S)) score on Day 15 (Visit 4) for the Full Analysis Set (FAS). Pharmacokinetic Endpoints • Plasma PK: Maximum plasma concentration (Cmax), time to attain Cmax (Tmax), and area under the plasma concentration-time curve over the dosing interval (AUCtau) will be estimated for mometasone furoate and olopatadine on Day 1 and Day 8 based on the pharmacokinetic analysis set (PKAS). Tertiary Efficacy Endpoints Nasal Symptoms: • Change from baseline in AM subject-reported rTNSS over the 14-day treatment period. • Change from baseline in AM subject-reported iTNSS over the 14-day treatment period. • Change from baseline in PM subject-reported rTNSS over the 14-day treatment period. • Change from baseline in PM subject-reported iTNSS over the 14-day treatment period. • Change from baseline in subject-reported reflective individual nasal symptoms over the 14-day treatment period (AM, PM and average of AM and PM). • Change from baseline in subject-reported instantaneous individual nasal symptoms over the 14-day treatment period (AM, PM and average of AM and PM). • Change from baseline in average AM and PM subject-reported rTNSS and iTNSS for each day. • Change from baseline in AM subject-reported rTNSS and iTNSS for each day. • Change from baseline in PM subject-reported rTNSS and iTNSS for each day. […]

[4] = Example 1, OH 50 μg, 4 hours after challenge

With `C[C@@H]1C[C@H]2[C@@H]3CCC4=CC(=O)C=C[C@]4(C)[C@@]3(Cl)[C@@H](O)C[C@]2(C)[C@@]1(OC(=O)c1ccco1)C(=O)CCl` [Mometasone Furoate, Mometasone furoate] the “Last time point until which quantifiable concentrations were observed” value [1] was 72 h, the “Inhibition of sneezing response (in words)” value (sneezing response; Example 1, OH 50 μg) was “not effective” and the “Percent inhibition of sneeze” value (sneezing response; Example 1, OH 50 μg) was 15%. For the same compound, the “Number of Sneeze (0-50 min)” value (sneezing response; Example 1, per animal: OH 50 μg, combination 50 (OH) & 10 (MF)) was 18.83, the “Inhibition of sneezing response (in words)” value (sneezing response; Example 2, OH 120 μg) was “not effective” and the “Percent inhibition of sneeze” value (sneezing response; Example 2, OH 120 μg) was −5%. The “Number of Sneeze (0-50 min)” value (sneezing response; Example 2, per animal: OH 120 μg, combination 120 (OH) & 10 (MF)) was 37.33, the “Inhibition of total cell and eosinophils in nasal lavage (in words)” value ([2]; Example 1, OH 50 μg) was “significant inhibition” and the “% inhibition of eosinophils” value ([2]; Example 1, OH 50 μg) was 46%. The “Percent inhibition of total cell count” value ([2]; Example 1, OH 50 μg) was 46%, the “Eosinophils × 10^5/ml nasal lavage” value [2, 4] was 2.00* × 10^5/ml and the “Total cell count × 10^5/ml nasal lavage” value [2, 4] was 3.90* × 10^5/ml. The “Inhibition of total cell and eosinophils in nasal lavage (in words)” value ([2]; Example 2, OH 120 μg) was “significant inhibition”, the “% inhibition of eosinophils” value ([2]; Example 2, OH 120 μg) was 20% and the “Eosinophils × 10^5/ml nasal lavage” value ([2]; Example 2, OH 120 μg) was 2.69 × 10^5/ml. The “Percent inhibition of total cell count” value ([2]; Example 2, OH 120 μg) was 30%, the “Total cell count × 10^5/ml nasal lavage” value ([2]; Example 2, OH 120 μg) was 4.96 × 10^5/ml and the “Mometasone furoate AUCtau, Geo Mean” value ([3]; Day 1) was 0.02616 ng·h/mL. For the same compound, the “Mometasone furoate AUCtau, Mean” value ([3]; Day 1) was 0.02856 ng·h/mL, the “Mometasone furoate AUCtau, Min-Max” value ([3]; Day 1) was 0.01211 to 0.07254 ng·h/mL and the “Mometasone furoate Cmax, Geo Mean” value ([3]; Day 1) was 6.27 pg/mL. For the same compound, the “Mometasone furoate Cmax, Mean” value ([3]; Day 1) was 6.78 pg/mL, the “Mometasone furoate Cmax, Min-Max” value ([3]; Day 1) was 2.67 to 12.80 pg/mL and the “Mometasone furoate Tmax, Median” value ([3]; Day 1) was 1.00 h. For the same compound, the “Mometasone furoate AUCtau, Geo Mean” value ([3]; Day 8) was 0.05267 ng·h/mL, the “Mometasone furoate AUCtau, Mean” value ([3]; Day 8) was 0.0584 ng·h/mL and the “Mometasone furoate AUCtau, Min-Max” value ([3]; Day 8) was 0.02568 to 0.12405 ng·h/mL. The “Mometasone furoate Cmax, Geo Mean” value ([3]; Day 8) was 9.17 pg/mL, the “Mometasone furoate Cmax, Mean” value ([3]; Day 8) was 9.92 pg/mL and the “Mometasone furoate Cmax, Min-Max” value ([3]; Day 8) was 3.58 to 16.10 pg/mL. For the same compound, the “Mometasone furoate Tmax, Median” value ([3]; Day 8) was 1.00 h.
